Data as given in patent US20240197682A1, “METHOD FOR TREATING NEUROLOGICAL DISEASES USING SUPRAMOLECULE POLYMER THERAPEUTICS” (The Regents of the University of California, priority 2022, published 2024).
Read-outs that look alike come from different tables or passages of the source.

Key:
[1] = biological target: T1, YFP-tagged full length 0N4R-Tau P301S aggregates seeded by 416-AD11A lysate (T24 cells) (Homo sapiens, UniProt P10636, P618S); experiment: Tau-AD high throughput screening (counter screen) in T24 cells; format: cell-based; settings: T24 cells transfected with 416-AD11A lysate
T1 construct: C-terminally YFP-tagged full length 0N4R-Tau carrying a P301S mutation; expressed in transfected cells
Method: A fragment of the Middle Tempral Gyrus (MTG) from Alzheimer's Disease (AD) patient 2217 was resuspended in 9 volumes of PBS (ml/g of brain) and homogenized 3×12 seconds using a probe homogenizer (Thomas Scientific) with disposable Omni Tip plastic homogenizing probes (Thomas Scinetific Cat No 3409Y77) to generate a 10% brain homogenate (10% AD11-BH). The 10% AD11-BH was clarified of insoluble debris by centrifugation at 800×g for 5 minutes. The resulting supernatant was collected and the protein concentration of this clarified BH (AD11-CBH) was determined by bicinchoninic acid assay (BCA) (Thermo Fisher Cat No. 23227). HEK293 cells stably expressing a C-terminally Clover-tagged truncated 4R-Tau^243-382 transgene containing the P301L and V337M mutations and a C-terminally Ruby-tagged truncated 3R-Tau^243-382 transgene containing the L266V and V337M mutations (128/139 cells) were transfected with the AD11-CBH using lipofectamine 2000 (LF2K) (Thermo Fisher Cat No. 11668500). Briefly, 0.32 μl of LF2K were diluted in 5 μl Opti-MEM (Thermo Scientific Cat No 31985070) per well of a 384-well plate and incubated for 5 min at room temperature (RT). This mixture was added to 0.32 μg of AD11-CBH diluted in 5 μl of PBS per well of a 384-well plate and vortex briefly. The transfection mixture was incubated at room temperature for 90 min. The transfection complexes were subsequently added to a single well of a 384-well plate containing 3500 128/139 cells. After 3 days the cells were harvested, counted and plated at a density of 1 cell/well in a 96-well plate. A clonal cell line containing Clover and Ruby positive Tau aggregates was selected and termed 416-AD11A cells. Following the expansion of these 416-AD11A cells, a cell lysate was prepared by freeze/thaw. The cells from a confluent T175 flask were harvested in 1 ml of PBS containing 1× protease inhibitor cocktail by scraping. The cell suspension was subjected to 4 cycles of freezing in liquid nitrogen for 5 minutes followed by thawing at 37° C. for 5 minutes. The resulting cell lysate was centrifuged at 2000 RPM for 10 minutes to remove the cell debris and the protein concentration of the resulting 416-AD11A lysate was determined by BCA assay and aliquots frozen for future use.
HEK293 cells stably expressing C-terminally YFP-tagged full length 0N4R-Tau carrying a P301S mutation (T24 cells) are plated at a density of 4000 cells per well of a 384-well black walled, clear bottom plate (Greiner Cat No 5678-1091Q) in 60 μl of complete DMEM (DMEM (Corning Cat No 10-013-CV), 10% FBS (VWR Cat No 97068-085, 0.5% Penicilin/streptomycin (Gibco Cat No 15140-122)) containing 0.1 μg/ml Hoechst Dye (Thermo Scientific Cat No H3570). Transfection complexes are prepared by diluting 0.15 μg of 416-AD11A lysate or HEK lysate in 5 μl of PBS per well to be transfected and 0.15 μl of Lipofectamine 2000 (LF2K) (ThermoFisher Cat No 11668500) in 5 μl of Opti-MEM per well to be transfected in separate tubes. The pre-diluted 416-AD11A or HEK lysates and LF2K are subsequently mixed and allowed to incubate for 90 minutes at RT. A 10 μl aliquot of the 416-AD11A or HEK transfection complexes is added to the appropriate wells of the 384-well plate containing the T24 cells using the Bravo liquid handling platform (Agilent). Wells A23-P24 of the 384-well plate are transfected with HEK lysate to act as a reference point for spontaneous aggregation of 0N4R^P301S and for transfection related toxicity. The dilution of test compounds is performed using the Bravo liquid handling platform (Agilent). The control is DMSO in the absence of any test compound. Briefly, 1 μl of each test compound (5 mM stock) in the 384-well test plate was transferred to a 384-well plate (Greiner Cat No 781280) containing 61.5 μl of complete DMEM to generate a working stock of compounds at 80 μM. […]

[2] = Parallel Artificial Membrane Permeability Assay (PAMPA); format: in vitro ADME; settings: for Papp at 4 hr, 200 uM: PAMPA, read-out: PAMPA: P_app; for PAMPA: P_app: 200 uM test compound, 4 hr
Method: 5 uL of 1% lecithin (VWR 0579) dissolved in n-dodecane (Sigma Aldrich D221104) was applied to each well of a MultiScreen IP PAMPA filter plate (Millipore MAIPSWU10) and allowed to equilibrate for 5 minutes. 300 uL of PBS was added to the acceptor plate and 150 uL of 200 uM test compound dissolved in PBS and 30% ethanol was added to the donor wells before incubating the donor plate in the acceptor plate for 4 hr at 500 rpm. 100 uL was sampled from the donor and acceptor wells and the concentrations were measured by liquid chromatography-mass spectrometry (SCIEX 4500) or UV-VIS plate reader (BMG).

tau fibrils = tau fibrils (Homo sapiens, UniProt P10636); settings: cited from earlier work
Chain of tau fibrils (P10636 1-441 isoform P10636-8): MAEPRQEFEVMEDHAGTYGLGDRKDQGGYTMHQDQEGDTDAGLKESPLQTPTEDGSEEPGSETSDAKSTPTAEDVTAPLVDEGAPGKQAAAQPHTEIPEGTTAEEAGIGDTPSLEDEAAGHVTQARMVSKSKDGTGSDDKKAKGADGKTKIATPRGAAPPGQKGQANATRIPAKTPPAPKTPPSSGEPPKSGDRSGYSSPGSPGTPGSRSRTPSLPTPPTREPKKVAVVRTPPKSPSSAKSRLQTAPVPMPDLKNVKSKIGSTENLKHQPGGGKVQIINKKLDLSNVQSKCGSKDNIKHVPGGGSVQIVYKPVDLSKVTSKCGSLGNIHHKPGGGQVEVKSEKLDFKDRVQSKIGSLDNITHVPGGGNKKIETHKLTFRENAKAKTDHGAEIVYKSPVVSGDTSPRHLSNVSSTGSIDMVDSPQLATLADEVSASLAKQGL

T1 sequence (P10636 1-383 isoform P10636-6 P243S): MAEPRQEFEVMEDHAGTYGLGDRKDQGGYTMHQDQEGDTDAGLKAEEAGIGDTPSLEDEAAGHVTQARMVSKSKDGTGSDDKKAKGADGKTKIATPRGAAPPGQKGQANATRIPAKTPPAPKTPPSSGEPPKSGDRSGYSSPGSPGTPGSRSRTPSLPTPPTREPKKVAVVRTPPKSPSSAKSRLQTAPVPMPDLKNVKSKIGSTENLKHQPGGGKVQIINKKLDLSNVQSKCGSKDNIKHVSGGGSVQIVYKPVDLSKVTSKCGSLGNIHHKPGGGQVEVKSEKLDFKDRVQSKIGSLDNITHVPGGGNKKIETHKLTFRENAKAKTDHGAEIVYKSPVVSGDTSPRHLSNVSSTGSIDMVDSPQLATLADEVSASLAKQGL

AD Tau Aggregates (% control) [1] [% control] | Papp at 4 hr, 200 uM ([2]; pH 5.0, 200 uM test compound) [×10⁻⁶ cm/s] | Papp at 4 hr, 200 uM ([2]; pH 7.4, 200 uM test compound) [×10⁻⁶ cm/s] | PAMPA: P_app ([2]; pH 7.4) [×10e−6 cm/sec] | PAMPA: P_app ([2]; pH 5.0) [×10e−6 cm/sec] | SMILES | IC50 (tau fibrils; GTP-1, read-out: measured IC50) [nM] | Kd (tau fibrils; tau PET tracer GTP-1, estimated Kd) [nM]
100 | 16.9 | 11.2 |  |  | O=C(Cn1cc(-c2ccoc2)c(=O)c2ccc(N3CCCC3)cc21)Nc1ccccc1C(F)(F)F [Compound 149, 2-[3-(furan-3-yl)-4-oxo-7-(pyrrolidin-1-yl)-1,4-dihydroquinolin-1-yl]-N-[2-(trifluoromethyl)phenyl]acetamide] |  | 
99 |  |  | 5.72 |  | O=c1nc2c(ccn2C(F)(F)F)cn1-c1nc(N2Cc3ccccc3C2)oc1-c1ccc(F)cc1 [Compound 242] |  | 
 |  |  |  |  | FCCC1CCN(c2ccn3c(n2)nc2ccccc23)CC1 [GTP-1] | 22 | 11
120 |  |  | >50 | >50 | CCc1ccccc1-c1nn(-c2ccc(F)cc2)c2nc(C(=O)NC)ncc12 [Compound 245] |  | 
100 |  |  | 26.7 | 19.1 | CCC(=O)Nc1ncc2c(-c3ccccc3)nn(Cc3ccc(OC)cc3)c2n1 [Compound 269] |  | 
100 | > 50 |  | >50 |  | CNC(=O)c1ncc2c(-c3cc4ccccc4cn3)nn(Cc3ccccc3)c2n1 [Compound 256, 1-benzyl-3-(isoquinolin-3-yl)-N-methyl-1H-pyrazolo[3,4-d]pyrimidine-6-carboxamide] |  | 
120 |  |  | >50 | >50 | CNC(=O)c1ncc2c(-c3ccccc3)nn(-c3ccc(F)cc3)c2n1 [Compound 246] |  | 
94 |  |  | 6.3 | 4.6 | COC(=O)Nc1ncc2c(-c3ccccc3)nn(-c3ccccc3)c2n1 [Compound 274] |  | 
92 |  |  | >50 | 44.7 | CC(=O)Nc1ncc2c(-c3ccccc3)nn(Cc3ccncc3)c2n1 [Compound 279] |  | 
100 |  |  | 45 | >50 | CNC(=O)c1ncc2c(-c3ccccc3Cl)nn(-c3ccc(F)cc3)c2n1 [Compound 244] |  | 
98 | > 50 |  | >50 |  | CNC(=O)c1ncc2c(n1)c(-c1ccc(Cl)cc1)nn2-c1ccnc(C(C)(F)F)n1 [Compound 288, 3-(4-chlorophenyl)-1-[2-(1,1-difluoroethyl)pyrimidin-4-yl]-N-methyl-pyrazolo[4,3-d]pyrimidine-5-carboxamide] |  | 
98 |  |  | 1.36 |  | Cc1ccn(-c2nc(-n3cc4ccn(C(F)(F)F)c4nc3=O)c(-c3ccc(F)cc3)o2)n1 [Compound 241] |  | 
